Reference: US4170656A, “Compositions containing cis-2-benzoyl-3-hydroxy-crotononitrile used to treat inflammation and joint deterioration” (priority 1978, dated 1979)

How the values were obtained:
[1] = Ultraviolet induced erythema in guinea pigs; format: in vivo, Albino guinea pigs; parameters: key: sum of 3 sites, each 0 = none, 0.5 = faint, 1.0 = distinct; max 3.0; details: maximum 3.0
Experimental: Albino guinea pigs were depilitated on their flanks, the evening before testing, with a standard mixture of barium sulfide and gum acacia. On the morning of the test, groups of four guinea pigs were dosed by gavage one hour prior (-1 hour) to ultraviolet exposure. At 0 hour they were restrained in a plastic container which allows exposure of 3 circular spots. They were then exposed to ultraviolet irradiation from a "Hanovia" Kromayer lamp, model 10, for 60 seconds. At one and four hours, the degree of erythema for each of the three sites was assessed according to the following scoring system: 0= no erythema, 0.5=incomplete circle or faint erythema, and 1.0=complete circle of distinct erythema. Thus, the maximum score for each animal was 3.0.

[2] = Adjuvant induced arthritis in rats (Freund's adjuvant); format: in vivo, Royal Hart, Wistar strain rats; details: for Dead/Treated At 21 Days: days 0-13
Experimental: Groups of three Royal Hart, Wistar strain rats weighing 200±10 grams each were injected intradermally in the right hind paw with Freund's adjuvant (dried human tubercle bacilli in a mineral oil vehicle) at a dose of 2 mg./kg. of body weight. Test compound was administered orally in a 1.5% starch vehicle at various doses once daily on days 0 through 13 post challenge. Control rats were treated in a similar manner, but given only starch vehicle. On the 14th and 21st day post challenge the diameter of the injected paw (primary lesion) was measured by micrometer caliper. The volume of inflamed paws were estimated from these measurements and the results are expressed as percent inhibition of swelling as compared to controls. At the same time, the other inflamed sites, such as ears, paws and tail (seconday lesions) were observed and each rat was graded as to degree of inflammation and swelling present. The grading is based on a scale of 0 to 24, where 0 represents a complete absence of induced arthritic nodules and 24 represents the maximum degree of inflammation. The mean grade for each treated group is calculated and the effects of each compound are expressed as percent inhibition of the control grade. Table I records the results of tests conducted with a typical compound of the present invention and known anti-inflammatory agents.

[3] = Carrageenin induced paw edema in rats (acute anti-inflammatory activity); format: in vivo, Royal Hart, Wistar strain rats; details: 250 mg./kg. by gavage; 5 hours after drug (4 hours after carrageenin); ratio greater than 1.41 is active
Experimental: In determining the acute anti-inflammatory activity of the cis-2-benzoyl-3-hydroxy-2-alkenonitriles of the present invention, Royal Hart, Wistar strain rats, ranging in weight from 80 to 90 grams were used. The rats were fasted overnight prior to dosing but had free access to water. The test compounds were administered in aqueous suspension, by gavage, in a volume of 1.7 ml. per 50 grams of rat [corresponds to hydration volume used by Winter, et al., Proc. Soc. […] The phlogistic agent used was carrageenin prepared as a sterile 1% suspension in 0.9% aqueous sodium chloride for routine testing. A volume of 0.05 ml. was injected through a 26 gauge needle into the plantar tissue of the right hind paw. Measurements were made 5 hours after drug administration (4 hours after carrageenin challenge). Volumes of both the normal and carrageenin inflammed feet were determined. The difference between the two measurements is considered to be the increased edema due to the carrageenin administration.

C/C(O)=C(\C#N)C(=O)c1ccccc1 [Cis-2-benzoyl-3-hydroxy-crotononitrile, Cis-2-benzoyl-3-hydroxycrotononitrile]
Erythema Score (avg.) ([1]; oral 15.6 mg./kg., 1 hour): 2.3 | Erythema Score (avg.) ([1]; oral 15.6 mg./kg., 4 hours): 2.5 | Erythema Score (avg.) ([1]; oral 31.3 mg./kg., 1 hour): 0.8 | Erythema Score (avg.) ([1]; oral 31.3 mg./kg., 4 hours): 2.3 | Erythema Score (avg.) ([1]; oral 62.5 mg./kg., 1 hour): 0.8 | Erythema Score (avg.) ([1]; oral 62.5 mg./kg., 4 hours): 2.4 | Erythema Score (avg.) ([1]; oral 125 mg./kg., 1 hour): 0 | Erythema Score (avg.) ([1]; oral 125 mg./kg., 4 hours): 1.3 | % Inhibition of Control Grade (secondary lesion) ([2]; oral 25 mg./kg., Day 14): 10% | % Inhibition of Swelling (primary lesion) ([2]; oral 25 mg./kg., Day 14): 26% | Mean Weight Gain ([2]; oral 25 mg./kg., Day 14): 37 grams | % Inhibition of Control Grade (secondary lesion) ([2]; oral 25 mg./kg., Day 21): 1% | % Inhibition of Swelling (primary lesion) ([2]; oral 25 mg./kg., Day 21): 14% | Mean Weight Gain ([2]; oral 25 mg./kg., Day 21): 28 grams | Dead/Treated At 21 Days ([2]; oral 25 mg./kg.): 3/18 | % Inhibition of Control Grade (secondary lesion) ([2]; oral 50 mg./kg., Day 14): 14% | % Inhibition of Swelling (primary lesion) ([2]; oral 50 mg./kg., Day 14): 64% | Mean Weight Gain ([2]; oral 50 mg./kg., Day 14): 51 grams | % Inhibition of Control Grade (secondary lesion) ([2]; oral 50 mg./kg., Day 21): 17% | % Inhibition of Swelling (primary lesion) ([2]; oral 50 mg./kg., Day 21): 54% | Mean Weight Gain ([2]; oral 50 mg./kg., Day 21): 45 grams | Dead/Treated At 21 Days ([2]; oral 50 mg./kg.): 3/36 | % Inhibition of Control Grade (secondary lesion) ([2]; oral 100 mg./kg., Day 14): 38% | % Inhibition of Swelling (primary lesion) ([2]; oral 100 mg./kg., Day 14): 68% | Mean Weight Gain ([2]; oral 100 mg./kg., Day 14): 43 grams | % Inhibition of Control Grade (secondary lesion) ([2]; oral 100 mg./kg., Day 21): 46% | % Inhibition of Swelling (primary lesion) ([2]; oral 100 mg./kg., Day 21): 53% | Mean Weight Gain ([2]; oral 100 mg./kg., Day 21): 41 grams | Dead/Treated At 21 Days ([2]; oral 100 mg./kg.): 5/18 | progression of the arthritis and associated joint deterioration ([2]; oral, days 0 through 13): appears to suppress the progression of the arthritis and associated joint deterioration | C/T Edema Ratio [3]: 2.3

CC(=O)Oc1ccccc1C(=O)O [Aspirin]
Erythema Score (avg.) ([1]; oral 31.3 mg./kg., 1 hour): 1.2 | Erythema Score (avg.) ([1]; oral 31.3 mg./kg., 4 hours): 2.3 | Erythema Score (avg.) ([1]; oral 62.5 mg./kg., 1 hour): 0.8 | Erythema Score (avg.) ([1]; oral 62.5 mg./kg., 4 hours): 2.0 | Erythema Score (avg.) ([1]; oral 125 mg./kg., 1 hour): 0.1 | Erythema Score (avg.) ([1]; oral 125 mg./kg., 4 hours): 2.0 | Erythema Score (avg.) ([1]; oral 250 mg./kg., 1 hour): 0.1 | Erythema Score (avg.) ([1]; oral 250 mg./kg., 4 hours): 1.2 | % Inhibition of Control Grade (secondary lesion) ([2]; oral 50 mg./kg., Day 14): 12% | % Inhibition of Swelling (primary lesion) ([2]; oral 50 mg./kg., Day 14): 23% | Mean Weight Gain ([2]; oral 50 mg./kg., Day 14): 56 grams | % Inhibition of Control Grade (secondary lesion) ([2]; oral 50 mg./kg., Day 21): 9% | % Inhibition of Swelling (primary lesion) ([2]; oral 50 mg./kg., Day 21): 3% | Mean Weight Gain ([2]; oral 50 mg./kg., Day 21): 44 grams | Dead/Treated At 21 Days ([2]; oral 50 mg./kg.): 2/21 | % Inhibition of Control Grade (secondary lesion) ([2]; oral 100 mg./kg., Day 14): 19% | % Inhibition of Swelling (primary lesion) ([2]; oral 100 mg./kg., Day 14): 36% | Mean Weight Gain ([2]; oral 100 mg./kg., Day 14): 48 grams | % Inhibition of Control Grade (secondary lesion) ([2]; oral 100 mg./kg., Day 21): 8% | % Inhibition of Swelling (primary lesion) ([2]; oral 100 mg./kg., Day 21): 13% | Mean Weight Gain ([2]; oral 100 mg./kg., Day 21): 53 grams | Dead/Treated At 21 Days ([2]; oral 100 mg./kg.): 18/63 | % Inhibition of Control Grade (secondary lesion) ([2]; oral 200 mg./kg., Day 14): 26% | % Inhibition of Swelling (primary lesion) ([2]; oral 200 mg./kg., Day 14): 48% | Mean Weight Gain ([2]; oral 200 mg./kg., Day 14): 40 grams | % Inhibition of Control Grade (secondary lesion) ([2]; oral 200 mg./kg., Day 21): 17% | % Inhibition of Swelling (primary lesion) ([2]; oral 200 mg./kg., Day 21): 27% | Mean Weight Gain ([2]; oral 200 mg./kg., Day 21): 44 grams | Dead/Treated At 21 Days ([2]; oral 200 mg./kg.): 10/66 | % Inhibition of Control Grade (secondary lesion) ([2]; oral 400 mg./kg., Day 14): 58% | % Inhibition of Swelling (primary lesion) ([2]; oral 400 mg./kg., Day 14): 73% | Mean Weight Gain ([2]; oral 400 mg./kg., Day 14): 41 grams | % Inhibition of Control Grade (secondary lesion) ([2]; oral 400 mg./kg., Day 21): 45% | % Inhibition of Swelling (primary lesion) ([2]; oral 400 mg./kg., Day 21): 48% | Mean Weight Gain ([2]; oral 400 mg./kg., Day 21): 55 grams | Dead/Treated At 21 Days ([2]; oral 400 mg./kg.): 18/57 | C/T Edema Ratio [3]: 2.8
